This note sets out measurements from ChEMBL document CHEMBL1143432, “Towards novel S-DABOC inhibitors: synthesis, biological investigation, and molecular modeling studies” (2008).

Molecules are shown by their SMILES. Some results are limits rather than exact numbers.

Experiment [1] deals with Human immunodeficiency virus type 1 reverse transcriptase (Human immunodeficiency virus 1) (UniProt Q72547). In words: Inhibition of wild type HIV1 reverse transcriptase.
Experiment [2] relates to Human immunodeficiency virus 1. In words: Antiviral activity against wild type HIV1 NL4-3 infected in human MT4 cells assessed as virus-induced cell death by MTT method. It is filed as functional. The following applies: Human immunodeficiency virus 1, NL4-3, MT4; read-out: ED50 (the source's name). Background: Tetrazolium assays rely on reduction of a dye to a coloured formazan, in cell work by metabolically active cells.

Experiment [3] concerns Human immunodeficiency virus 1. In words: Antiviral activity against drug-resistant HIV1 with reverse transcriptase Y181C mutant infected in human MT4 cells assessed as virus-induced cell death by MTT method. It is filed as functional. The following applies: Human immunodeficiency virus 1, MT4; read-out: ED50 (the source's name).
Experiment [4] concerns Human immunodeficiency virus 1. In words: Antiviral activity against drug-resistant HIV1 with reverse transcriptase K103N mutant infected in human MT4 cells assessed as virus-induced cell death by MTT method. The format is functional. The settings on record: Human immunodeficiency virus 1, MT4; read-out: ED50 (the source's name).
Experiment [5] in a line: Ratio of ED50 for drug resistant HIV1 with reverse transcriptase K103N mutant to wild type HIV1 NL4-3. The format is functional.
A short description of experiment [6]: Ratio of ED50 for drug resistant HIV1 with reverse transcriptase Y181C mutant to wild type HIV1 NL4-3. The format is functional.

For the compound `CSc1nc(N)c(C)c(C(Cl)c2ccccc2)n1` (centres undefined), in experiment [1], the ID50 is > 20 µM. In addition, the figures for the EC50 in experiment [2], in experiment [3] and in experiment [4] were 12 µM, > 25 µM and > 25 µM, respectively.
On to `CSc1nc(N)c(C)c(C(=O)Cc2ccccc2)n1`, for which the ID50 in experiment [1] is > 20 µM. In addition, the EC50 in experiment [2], in experiment [3] and in experiment [4] was > 25 µM each time.
For `Cc1ccnc2c1NC(=O)c1cccnc1N2C1CC1` [NEVIRAPINE], the figures for the EC50 in experiment [2], in experiment [3] and in experiment [4] were 0.04 µM, > 2 µM and 0.68 µM, respectively. Besides, the Ratio EC50 in experiment [5] amounted to 17.
Consider `CSc1nc(N)c(C)c(C(F)c2ccccc2)n1` (centres undefined), for which, in experiment [1], the ID50 is > 20 µM. In addition, the EC50 in experiment [2], in experiment [3] and in experiment [4] was > 25 µM throughout.
`Cc1c(N)nc(S(C)(=O)=O)nc1C(=O)c1ccccc1` returned an ID50 in experiment [1] of 16 µM. In addition, the Ratio EC50 in experiment [6] turned out to be 23; in experiment [5] it was 43. The EC50 in experiment [2] was found to be 0.44 µM; in experiment [3] it was 10.4 µM; in experiment [4], 19.1 µM.
`COc1ccc(CSc2nc(Cc3c(Cl)cccc3Cl)c(C)c(=O)[nH]2)cc1`: the EC50 in experiment [2] came out at 0.007 µM; in experiment [4] it was 4.7 µM. In experiment [5], the Ratio EC50 stood at 671.
Take `CSc1nc(N)c(C)c(C(=O)c2ccccc2)n1`: the ID50 in experiment [1] is 1.9 µM. Moreover, the Ratio EC50 in experiment [6] and in experiment [5] was 28 each time. The EC50 came out at 0.06 µM in experiment [2], 1.71 µM in experiment [3] and 1.67 µM in experiment [4].
Compound `CSc1nc(N)c(C)c(C(=O)c2cccc3ccccc23)n1` showed an ID50 in experiment [1] of 2.7 µM. Further, the EC50 in experiment [2], in experiment [3] and in experiment [4] was > 19.4 µM each time.
In turn, `CSc1nc(N)c(C)c(C(=O)c2cccc(F)c2)n1` came in with an ID50 in experiment [1] of 0.2 µM. Further, the results for the Ratio EC50 in experiment [6] and in experiment [5] were 23 and 20, respectively. Besides, the EC50 in experiment [2] amounted to 0.034 µM; in experiment [3] it was 0.779 µM; in experiment [4] it was 0.695 µM.
Turning to `CNc1nc(N)c(C)c(C(=O)c2ccccc2)n1`, the ID50 in experiment [1] is > 20 µM. Moreover, the figures for the EC50 in experiment [2], in experiment [3] and in experiment [4] were 3.4 µM, > 25 µM and > 25 µM, respectively.
As to `CSc1nc(N)c(C)c(/C(=N\O)c2ccccc2)n1`, the ID50 in experiment [1] was > 20 µM. Besides, the EC50 in experiment [2] is 10.5 µM; in experiment [3], > 25 µM; in experiment [4], > 25 µM.
As for `O=C1Nc2ccc(Cl)cc2[C@@](C#CC2CC2)(C(F)(F)F)O1` [EFAVIRENZ], the EC50 in experiment [3] was 0.008 µM; in experiment [4] it was 0.133 µM.
Turning to `CSc1nc(N)c(C)c(C(O)c2ccccc2)n1` (centres undefined), the ID50 in experiment [1] came to 7.7 µM. Besides, the EC50 in experiment [2], in experiment [3] and in experiment [4] was > 25 µM each time.
With `CSc1nc(N)c(C)c(C(=O)CCc2ccccc2)n1`, the ID50 in experiment [1] is > 20 µM. For the same compound, the EC50 in experiment [2], in experiment [3] and in experiment [4] was > 25 µM in each case.
